# Data reported in patent US12552773B2, “Compound for specifically enhancing spatial coupling degree of TRPV4-KCa2.3 complex and use thereof” (Jiangnan University, priority 2020, dated 2026).
# What was measured:
# [1] = biological target: T1, TRPV4-KCa2.3 complex (Mus musculus, UniProt P58391+Q9EPK8); experiment: In vitro coupling activity test (FRET, immunostained endothelial cells); type: cell-based, mice; settings: for Fret efficiency value (average value): endothelial cells, 10 μmol/L, 24 hours, higher value = higher degree of coupling; for coupling between the TRPV4 and the KCa2.3: high-salt state, cells incubated 24 hours, compared with JNC-440
# T1 construct: endogenous in cells
# Procedure: Endothelial cells were cultured for 3-5 days, separately incubated with the compounds in Examples 1, 2, 3, 4, 5 and 6 with a concentration of 10 μmol/L for 24 hours, fixed with 4% paraformaldehyde for 30 minutes, permeabilized with PBS containing 0.2% Triton X-100 for 10 minutes and blocked with PBS containing 5% BSA for 1 hour. Then, the cells were sequentially stained with TRPV4-550 as a primary antibody, KCa2.3 as a coupled secondary antibody (Life Technologies) and DAPI (Vector Laboratories, Burlingame, CA, USA). A laser confocal microscope was used for photographing, and a Fret value was calculated.
# A higher value indicated a higher degree of coupling between the two proteins.
# With reference to FIG. 3, the compound obtained in Example 1 was abbreviated as compound 365; the compound obtained in Example 2 was abbreviated as compound 366; the compound obtained in Example 3 was abbreviated as compound 491; the compound obtained in Example 4 was abbreviated as compound 437; the compound obtained in Example 5 was abbreviated as compound 455; and the compound obtained in Example 6 was abbreviated as compound 469. HS referred to hypertensive mice induced by a high-salt diet, and WT referred to normal wild-type mice.
# [2] = In vitro metabolism in liver microsomes, mouse; type: in vitro ADME; settings: for In vivo inherent clearance rate: from mouse liver microsomes; for half-life at 0.193 µM: mouse, liver microsomes, pH 7.4, mouse liver microsomes; for microsomal CLint at 0.193 µM: pH 7.4, read-out: Inherent clearance rate in liver microsomes
# Procedure: (§1) An in vitro metabolic incubation system with a total volume of 207 μL and an organic solvent less than 1% included 188 μL of a 0.1 mol/L PBS buffer (pH 7.4) and 12 μL of an NADPH generation system (prepared by mixing 10 μL of a solution A and 2 μL of a solution B on an ice bath before use). 2 μL of the compounds in Examples 4 and 5 with a concentration of 20 μm/L were added into the incubation system on an ice bath for pre-incubation in a water bath at 37° C. for 5 minutes. Then, 5 μL of liver microsomal enzymes of different species were added on an ice bath for uniform mixing and incubation in a water bath at 37° C. 400 μl of glacial acetonitrile (containing 50 ng/ml of an internal standard (caffeine)) was separately added at 0 minute, 10 minutes, 30 minutes, 60 minutes, 90 minutes, 120 minutes, 180 minutes, 360 minutes and 480 minutes to stop a reaction, and a parallel experiment was carried out 3 times. A rotation speed was 13,000 rpm/15 min. A supernatant was taken and detected by using an ultra-high performance liquid chromatography-quadrupole time-of-flight mass spectrometer.
# [3] = tested on: hypertensive mice induced by a high-salt diet; experiment: Effects on blood pressure of hypertensive mice in vivo (tail-cuff); settings: intragastric, 30 mg/kg; for Mean arterial pressure change value: maximum drop of the blood pressure
# Procedure: The blood pressure of mice was determined by using an IITC non-invasive sphygmomanometer and a tail-cuff method. At first, the mice were trained every day for at least a week with half an hour each time. During each test, a systolic blood pressure value, a diastolic blood pressure value, a mean arterial pressure value and a heart rate could be obtained. After adaption, the mice were administered intragastrically with the compounds in Examples 4 and 5 with a dosage of 30 mg/kg, and then the blood pressure of the hypertensive mice was measured within a regular time. According to results, it was shown that after the compound in Example 4 was used, the blood pressure was reduced for only 1.5 h; and after the compound in Example 5 was used, the blood pressure could be reduced for 8 h.
# (§2) According to a line chart in FIG. 4, the abscissa referred to time with h as the unit; and the ordinate referred to systolic blood pressure (SBP), mean arterial pressure (MAP) and diastolic blood pressure (DBP) with mmHg as the unit. […] According to a histogram, the ordinate referred to changes of the mean arterial pressure with mmHg as the unit. […] HS referred to the hypertensive mice induced by a high-salt diet (model mice used in in vivo experiments in this example). WT referred to normal wild-type mice. A control group Ctrl referred to model mice administered intragastrically with normal saline rather than the compounds involved in this application.
# as §2, with “5,” for “4,”
# [4] = tested on: Mesenteric primary endothelial cells; experiment: Determination of intracellular K+ (PBFI fluorescence ratio); type: cell-based; settings: high-salt state, 10 μmol/L, 24 hours, versus no drug
# Procedure: Mesenteric primary endothelial cells were cultured for 3-5 days and separately incubated with the compounds in Examples 4, 5 and 6 with a concentration of 10 μmol/L for 24 hours. A culture medium was removed. The cells and NPSS containing PBFI were incubated in an incubator at a ratio of 1:200 at 37° C. in a dark environment.
# An Olympus fluorescence imaging system was used for measuring fluorescence with dual excitation at 340 nm and 380 nm. Changes of [K^+] were calculated as changes of a PBFI ratio.
# [5] = In vitro metabolism in liver microsomes, rat; type: in vitro ADME
# Procedure: as §1
# [6] = In vitro metabolism in liver microsomes, dog; type: in vitro ADME
# Procedure: as §1
# [7] = In vitro metabolism in liver microsomes, human; type: in vitro ADME; settings: for In vivo inherent clearance rate: from human liver microsomes; for half-life at 0.193 µM: human, liver microsomes, pH 7.4, human liver microsomes, read-out: Half-life obtained after incubation in liver microsomes of human (converted); for microsomal CLint at 0.193 µM: pH 7.4, read-out: Inherent clearance rate in liver microsomes
# Procedure: as §1
# [8] = In vitro metabolism in liver microsomes of different species (overall statement); type: in vitro ADME; settings: for metabolism differences between species: liver microsomes of different species; for half-life at 0.193 µM: mouse, rat, human, dog (Example 4), human (Example 5), liver microsomes, pH 7.4, liver microsomes, overall over the species
# Procedure: as §1
# T1 sequence (Q9EPK8 whole entry): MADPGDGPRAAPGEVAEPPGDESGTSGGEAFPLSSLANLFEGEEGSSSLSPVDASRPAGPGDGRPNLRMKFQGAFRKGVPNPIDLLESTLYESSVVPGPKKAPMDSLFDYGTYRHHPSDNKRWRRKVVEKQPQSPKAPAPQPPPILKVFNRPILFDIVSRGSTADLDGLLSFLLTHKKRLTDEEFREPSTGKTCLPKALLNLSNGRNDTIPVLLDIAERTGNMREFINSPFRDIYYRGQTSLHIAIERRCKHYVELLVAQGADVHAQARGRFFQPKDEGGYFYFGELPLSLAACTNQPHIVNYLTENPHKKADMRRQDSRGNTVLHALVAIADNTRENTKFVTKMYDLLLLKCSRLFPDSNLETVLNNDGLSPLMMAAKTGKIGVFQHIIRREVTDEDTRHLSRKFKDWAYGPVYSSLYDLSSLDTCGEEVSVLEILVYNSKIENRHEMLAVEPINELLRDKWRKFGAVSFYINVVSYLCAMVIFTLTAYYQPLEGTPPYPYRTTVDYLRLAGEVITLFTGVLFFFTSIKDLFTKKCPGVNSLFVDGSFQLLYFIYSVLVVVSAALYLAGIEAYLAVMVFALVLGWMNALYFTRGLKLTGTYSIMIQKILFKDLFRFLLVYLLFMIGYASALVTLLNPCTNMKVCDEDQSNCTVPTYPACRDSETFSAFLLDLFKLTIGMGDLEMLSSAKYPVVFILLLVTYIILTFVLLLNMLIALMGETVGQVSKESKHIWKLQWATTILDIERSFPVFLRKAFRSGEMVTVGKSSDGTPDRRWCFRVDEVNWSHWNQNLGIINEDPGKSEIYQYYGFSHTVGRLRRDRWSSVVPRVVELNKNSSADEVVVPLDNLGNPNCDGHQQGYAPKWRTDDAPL
# T1 sequence (P58391 whole entry): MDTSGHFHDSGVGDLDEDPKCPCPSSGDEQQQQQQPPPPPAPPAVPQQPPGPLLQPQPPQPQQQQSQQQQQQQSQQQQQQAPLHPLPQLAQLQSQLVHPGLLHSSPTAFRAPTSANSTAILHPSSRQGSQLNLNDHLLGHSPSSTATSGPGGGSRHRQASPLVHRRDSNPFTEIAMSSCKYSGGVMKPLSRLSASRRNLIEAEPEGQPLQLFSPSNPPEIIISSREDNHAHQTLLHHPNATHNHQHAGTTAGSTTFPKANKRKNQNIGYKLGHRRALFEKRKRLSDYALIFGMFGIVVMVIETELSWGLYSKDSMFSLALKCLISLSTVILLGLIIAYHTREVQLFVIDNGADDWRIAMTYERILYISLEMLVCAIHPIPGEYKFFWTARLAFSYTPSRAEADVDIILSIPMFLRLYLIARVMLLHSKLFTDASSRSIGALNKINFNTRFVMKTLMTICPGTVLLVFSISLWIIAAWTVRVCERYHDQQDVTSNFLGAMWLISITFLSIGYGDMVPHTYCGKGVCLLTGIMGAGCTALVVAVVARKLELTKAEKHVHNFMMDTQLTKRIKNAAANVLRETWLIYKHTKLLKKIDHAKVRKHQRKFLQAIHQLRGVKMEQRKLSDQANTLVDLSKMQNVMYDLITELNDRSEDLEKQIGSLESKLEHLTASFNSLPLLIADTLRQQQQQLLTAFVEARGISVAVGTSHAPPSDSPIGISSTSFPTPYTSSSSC
smiles,measurement,setting,value
"O=C(Cc1ccncc1)NCCCNC(=O)c1nc(=O)c2ccccc2[nH]1 [Example 1, 4-oxo-N-(3-(2-(pyridin-4-yl)acetamido)propyl)-1,4-dihydroquinazoline-2-carboxamide]",Fret efficiency value (average value),[1],6.06
same,coupling between the TRPV4 and the KCa2.3,[1],enhanced
"O=C(NCCCNC(=O)c1nc(=O)c2ccccc2[nH]1)Nc1ccncc1 [Example 2, 4-oxo-N-(3-(3-(pyridin-4-yl)ureido)propyl)-1,4-dihydroquinazoline-2-carboxamide]",Fret efficiency value (average value),[1],5.98
same,coupling between the TRPV4 and the KCa2.3,[1],enhanced
CCN1CCN(Cc2ccc(NC(=O)NCCCNC(=O)c3nc(=O)c4ccccc4[nH]3)cc2)CC1 [Example 3],Fret efficiency value (average value),[1],5.62
same,coupling between the TRPV4 and the KCa2.3,[1],enhanced
"CCN1CCN(Cc2ccc(NC(=O)NCCCCC(=O)Nc3ccccc3)cc2)CC1 [Example 4, 5-(3-(4-((4-ethylpiperazin-1-yl)methyl)phenyl)ureido)-N-phenylpentaneamide]",In vivo inherent clearance rate,[2],40.21 ml · ^1min · kg^−1
same,half-life at 0.193 µM,[2],2.34 h
same,microsomal CLint at 0.193 µM,[2]; mouse liver microsomes,10 µL/min/mg
same,time for which the blood pressure was reduced,[3],1.5 h
same,Mean arterial pressure change value,[3],16 mmHg
same,outflow ability of the intracellular potassium ions (changes of [K+]),[4],significantly improved
same,In vivo inherent clearance rate,[5]; from rat liver microsomes,15.07 ml · ^1min · kg^−1
same,half-life at 0.193 µM,"[5]; pH 7.4, rat liver microsomes",2.85 h
same,microsomal CLint at 0.193 µM,"[5]; pH 7.4, rat liver microsomes, read-out: Inherent clearance rate in liver microsomes",8.4 µL/min/mg
same,In vivo inherent clearance rate,[6]; from dog liver microsomes,15.91 ml · ^1min · kg^−1
same,half-life at 0.193 µM,"[6]; pH 7.4, dog liver microsomes",2.23 h
same,microsomal CLint at 0.193 µM,"[6]; pH 7.4, dog liver microsomes, read-out: Inherent clearance rate in liver microsomes",11 µL/min/mg
same,Fret efficiency value (average value),[1],8.15
same,coupling between the TRPV4 and the KCa2.3,[1],enhanced
same,In vivo inherent clearance rate,[7],9.43 ml · ^1min · kg^−1
same,half-life at 0.193 µM,"[7]; 37° C., NADPH",2.44 h
same,microsomal CLint at 0.193 µM,[7]; human liver microsomes,9.5 µL/min/mg
same,metabolism differences between species,[8],no metabolism differences between species
same,half-life at 0.193 µM,[8],~2.5 h
"CCN1CCN(Cc2ccc(NC(=O)NCCCCC(=O)Nc3ccc(F)cc3)cc2)CC1 [Example 5, 5-(3-(4-((4-ethylpiperazin-1-yl)methyl)phenyl)ureido)-N-(4-fluorophenyl)pentaneamide]",In vivo inherent clearance rate,[2],7.065 ml · ^1min · kg^−1
same,Half-life in liver microsomes,[2]; mouse liver microsomes,3.35 h
same,half-life at 0.193 µM,[2],4.23 h
same,microsomal CLint at 0.193 µM,[2]; mouse liver microsomes,7.1 µL/min/mg
same,time for which the blood pressure was reduced,[3],8 h
same,Mean arterial pressure change value,[3],38 mmHg
same,outflow ability of the intracellular potassium ions (changes of [K+]),[4],significantly improved
same,Fret efficiency value (average value),[1],7.68
same,coupling between the TRPV4 and the KCa2.3,[1],enhanced
same,In vivo inherent clearance rate,[7],22.326 ml · ^1min · kg^−1
same,Half-life obtained after incubation in liver microsomes of human,"[7]; human liver microsomes, 37° C., NADPH",4.23 h
same,half-life at 0.193 µM,"[7]; 37° C., NADPH",3.35 h
same,microsomal CLint at 0.193 µM,[7]; human liver microsomes,5.7 µL/min/mg
same,metabolism differences between species,[8],no metabolism differences between species
same,half-life at 0.193 µM,[8],4 ± 0.5 h
CCN1CCN(Cc2ccc(NC(=O)NCCCCCNC(=O)c3ccc(F)cc3)cc2)CC1 [Example 6],outflow ability of the intracellular potassium ions (changes of [K+]),[4],significantly improved
same,Fret efficiency value (average value),[1],7.98
same,coupling between the TRPV4 and the KCa2.3,[1],enhanced
"O=C(NCCCNC(=O)C(c1ccccc1)c1ccccc1)c1nc(=O)c2ccccc2[nH]1 [JNC-440, reference compound]",Mean arterial pressure change value,[3],10 mmHg
same,Fret efficiency value (average value),[1],5.02
same,half-life at 0.193 µM,"[7]; 37° C., NADPH",0.813 h
